Test results from US20170351014A1, “NEAR-INFRARED ABSORPTION COMPOSITION, CURED FILM, NEAR-INFRARED ABSORPTION FILTER, SOLID-STATE IMAGING DEVICE, AND INFRARED SENSOR” (FUJIFILM Corporation, priority 2015, published 2017).

Columns and labels:
Type in all cases: physicochemical
[1] = Solubility of compound to propylene glycol monomethyl ether acetate (PGMEA); details: PGMEA at 25° C.
Experimental: The solubility of each compound to propylene glycol monomethyl ether acetate (PGMEA) at 25° C. was evaluated based on the following standards.
A: The solubility of the compound to PGMEA at 25° C. is 2 mass % or greater.

[2] = Near-infrared shieldability evaluation of cured film; details: cured film 1.0 μm, Resin 1, transmittance at 785 nm
Experimental: (§1) A near-infrared absorption composition was prepared by mixing according to the following composition. The solid content of the composition was 31 mass %, and the content of the near-infrared absorption substance with respect to the total solid content of the composition was 7.5 mass %.
(§2) Each composition was applied to a glass substrate (1737 manufactured by Corning Inc.) using a spin coater such that a film thickness after drying was 1.0 μm, and a heating treatment (pre-baking) was performed thereon for 120 seconds using a hot plate at 100° C.
(§3) Next, entire surface exposure was performed at 500 mJ/cm2 using an i-ray stepper exposure device FPA-3000i5+(manufactured by Canon Inc.). Next, paddle development was performed for 60 seconds at 23° C. using a developing machine (CD-2060, manufactured by FUJIFILM Electronics Materials Co., Ltd.), and a rinsing treatment was performed with pure water. Then, spray drying was performed thereon. Using a hot plate at 200° C., a heating treatment (post-baking) was performed for 300 seconds to obtain a cured film.
The transmittance of each cured film at the maximum absorption wavelength was measured using a spectrophotometer U-4100 (manufactured by Hitachi High-Technologies Corporation). The near-infrared shieldability was evaluated based on the following standards.
A: Transmittance at 785 nm≦10%
D: 40%<Transmittance at 785 nm

[3] = Maximum absorption wavelength and absorbance ratio of cured film; details: cured film 1.0 μm, Resin 1
Experimental: (§4) A maximum absorption wavelength of each film and an absorbance ratio as a value obtained by dividing an absorbance at a wavelength of 555 nm by an absorbance at the maximum absorption wavelength were measured using a spectrophotometer U-4100 (manufactured by Hitachi High-Technologies Corporation).
as §1, §2, §3

[4] = Maximum absorption wavelength and absorbance ratio of film formed from near-infrared absorption composition; details: film on glass
Experimental: A near-infrared absorption composition was prepared by mixing according to the following composition.
Each composition was applied to a glass substrate (1737 manufactured by Corning Inc.) using a spin coater, and a heating treatment was performed thereon for 120 seconds using a hot plate at 120° C.
as §4

[5] = Visible transparency evaluation of cured film; details: cured film 1.0 μm, Resin 1, minimum transmittance at 500 to 600 nm
Experimental: as §1, §2, §3
The transmittance of each cured film at a wavelength of 500 to 600 nm was measured using a spectrophotometer U-4100 (manufactured by Hitachi High-Technologies Corporation). The visible transparency was evaluated based on the following standards.
A: 80% 5 Minimum value of transmittance at wavelength of 500 to 600 nm
B: 70%: Minimum value of transmittance at wavelength of 500 to 600 nm<80%
C: 60%: Minimum value of transmittance at wavelength of 500 to 600 nm<70%
D: Minimum value of transmittance at wavelength of 500 to 600 nm<60%

[6] = Resin A (benzyl methacrylate/methyl methacrylate copolymer), 120° C. 120 seconds

Solubility (in words) [1] | Near-Infrared Shieldability [2] | Absorbance Ratio (555 nm/λmax) [3] | Maximum Absorption Wavelength [3] [nm] | Absorbance Ratio (555 nm/λmax) ([4]; Resin A) | Maximum Absorption Wavelength [4, 6] [nm] | Absorbance Ratio (555 nm/λmax) ([4]; Resin B (polycaprolactone)) | Maximum Absorption Wavelength ([4]; Resin B (polycaprolactone)) [nm] | Compound | Solubility [1] | Visible Transparency [5]
excellent solubility | B (10%<Transmittance at 785 nm≦25%) | 0.10 | 762 | 0.10 | 763 | – | – | CCCCCCCCOc1ccc(-c2c3/c(=C(\C#N)c4nc(C)cc(C)n4)n(B(c4ccccc4)c4ccccc4)c(-c4ccc(OCCCCCCCC)cc4)c3/c(=C(\C#N)c3nc(C)cc(C)n3)n2B(c2ccccc2)c2ccccc2)cc1 [Compound A-12] | B (The solubility of the compound to PGMEA at 25 °C is 0.5 mass % to less than 2 mass %.) | B (70%: Minimum value of transmittance at wavelength of 500 to 600 nm<80%)
– | D (40%<Transmittance at 785 nm) | 0.12 | 855 | 0.11 | 860 | 0.11 | 863 | CCCCCCCCOc1ccc(-c2c3/c(=C(\C#N)c4cc5cc(C(C)(C)C)ccc5cn4)n(B(c4ccccc4)c4ccccc4)c(-c4ccc(OCCCCCCCC)cc4)c3/c(=C(\C#N)c3cc4cc(C(C)(C)C)ccc4cn3)n2B(c2ccccc2)c2ccccc2)cc1 [Compound A-100] | C (The solubility of the compound to PGMEA at 25 °C is less than 0.5 mass %.) | B (70%: Minimum value of transmittance at wavelength of 500 to 600 nm<80%)
– | B (10%<Transmittance at 785 nm≦25%) | 0.15 | 780 | 0.14 | 790 | – | – | COB(OC)n1c(-c2ccccc2-c2ccccc2)c2/c(=C(\C#N)c3nc4ccc(Cl)cc4o3)n(B(OC)OC)c(-c3ccccc3-c3ccccc3)c2/c1=C(\C#N)c1nc2ccc(Cl)cc2o1 [Compound D-5] | – | C (60%: Minimum value of transmittance at wavelength of 500 to 600 nm<70%)
